Measured values published in patent publication US20130184272A1, “DIABETES THERAPEUTIC AGENT” (TAKEDA PHARMACEUTICAL COMPANY LIMITED, priority 2010, published 2013).
“And” between values parts separate entries of the source, which are not always exact repeats. Equal values may be shown once. Marks after values point to notes of the source that are not given here.

Assays:
EGLN3 = assay: Muscle-related gene expression in myoblast: EGLN3; assay type: cell-based, Mouse; conditions: for EGLN3/36B4 expression level: 10 μM, 1 day, relative value
Description: • (1) In the same manner as in Example 1, C2C12 cell was cultured, and the compound of Reference Example 1 (10 nM) was added. A DMSO solution was added to the control group instead of the test compound. • (2) One day after the addition of the test compound or DMSO solution, total RNA was extracted using Rneasy 96 kit (Qiagen) and according to the manual of the kit, and cDNA was prepared using TaqMan reverse transcription reagent (Applied Biosystems). • (3) The expression level of MyoD (Mm00440387_m1, TaqMan Gene Expression Assays, Applied Biosystems), myogenin (Mm00446194_m1, TaqMan Gene Expression Assays, Applied Biosystems), creatine kinase (CKM) (Mm00432556_m1, TaqMan Gene Expression Assays, Applied Biosystems), EGLN3 (Mm00472200_m1, TaqMan Gene Expression Assays, Applied Biosystems) was measured by quantify PCR using ABI PRISM 7900 (Applied Biosystems). The expression level of each gene, shown in Table 3, Table 4, Table 5 and Table 6, was obtained by amendment against the expression level of 36B4 (Takeda Pharmaceutical Company Limited), and is shown in a relative value to the value of the control group cultured in a growth medium as 1.
The data of Table 3, Table 4, Table 5 and Table 6 show mean±standard deviation at n=6 (n is the number of samples).
The following depicts the sequences of genes used for the amendment. • 36B4-F: 5′-TGCCACACTCCATCATCAATG-3′ (SEQ ID NO: 1) • 36B4-R: 5′-CGCAAATGCAGATGGATCAG-3′ (SEQ ID NO: 2) • 5′-VIC-ACCTTCCCACTTACTGAAAAGGTCAAGGCC-TAMRA-3′ (SEQ ID NO: 3)

C3H10T1/2 cells = assay: Adipocyte differentiation suppressive action; assay type: cell-based; conditions: for cell number (number of nucleus/visual field) / lipid droplet area (lipid droplet stained area/cell number): DM, 9 days
Description: C3H10T1/2 cells (Dainippon Pharmaceutical Co., Ltd.) were cultured in a growth medium until confluence. 1 μM dexamethasone, 0.5 mM 3-isobutyl-1-methylxanthine and 5 μg/mL insulin were added to the medium, and the cells were cultured for 3 days. The medium was exchanged with a growth medium added with 4 μg/mL insulin and the cells were cultured for 3 more days and cultured in a growth medium for 3 days. When the compound was added, it was added for 9 days after reaching confluence and the cells were cultured. The cells were fixed with 3.7% formalin, lipid droplet was stained with 100 nM BODIPY 493/503 (Molecular Probes), nucleus was stained with 2 μM Hoechst33258 (Acros Organics), and analyzed by IN Cell analyzer (GE Healthcare). The data of Table 15 show mean±standard deviation at n=4 (n is the number of samples).

Female KKA^y mice = assay: Improvement of insulin resistance in KKA^y mouse (plasma glucose AUC after insulin); assay type: in vivo; conditions: 4 weeks, insulin 0.5 U/kg i.p.
Description: Female KKA^y mice (12-week-old, CLEA Japan, Inc.) were bred while allowing free ingestion of both feed and water. The mice were bred for acclimation with powder CE-2 (CLEA Japan, Inc.) from 2 weeks before administration of the compound. The body weight and plasma markers were measured and, at 14 weeks of age, they were divided into 4 groups (6 per group) such that the measured values were uniform. The compound of Reference Example 1 was administered for 4 weeks in a mixed feed (0.01-0.09 mg/kg/day). After fasting overnight, insulin was intraperitoneally administered at 0.5 U/kg and, after 30, 60 and 120 min, blood samples were collected.

C2C12 cells = assay: Action on muscle cell differentiation suppressed by TNF-α (creatine kinase activity); assay type: cell-based, Mouse; conditions: for creatine kinase activity (mIU/μg): TNF-a 30 ng/mL, 3 days
Description: • (1) In the same manner as in Example 1, C2C12 cells were cultured in a growth medium to not less than 90% confluence. • (2) The medium was exchanged with a differentiation medium, the compound of Reference Example 1 together with TNF-α were added, and the cells were cultured for 3 days. • (3) The cells were washed with PBS, 0.5% NP-40 solution was added, and the cells were lysed by freeze-thawing. The cell extract was centrifuged and the creatine kinase activity in the supernatant was measured as an index of muscle differentiation. The creatine kinase activity was measured using CPKII Test Wako (Wako Pure Chemical Industries, Ltd.) according to the manual of the kit.
The data in Table 9 show mean±standard deviation at n=3 (n is the number of samples).

Structure (SMILES): Cc1ncccc1Oc1sc(C(N)=O)c2c1-c1c(cnn1C)CC2 [Ref. Ex. 1, 1-methyl-8-[(2-methylpyridin-3-yl)oxy]-4,5-dihydro-1H-thieno[3,4-g]indazole-6-carboxamide]
- expression of EGLN3 (in words) (EGLN3; C2C12 cells cultured in a differentiation medium): increased
- EGLN3/36B4 expression level (EGLN3; DM (differentiation medium)): 2.07 ± 1.15
- EGLN3/36B4 expression level (EGLN3; GM (growth medium)): 2.12 ± 0.15
- cell number (number of nucleus/visual field) (C3H10T1/2 cells; compound 0.1 nM): 303 ± 28
- lipid droplet area (lipid droplet stained area/cell number) (C3H10T1/2 cells; compound 0.1 nM): 9625
- cell number (number of nucleus/visual field) (C3H10T1/2 cells; compound 1 nM): 295 ± 15
- lipid droplet area (lipid droplet stained area/cell number) (C3H10T1/2 cells; compound 1 nM): 5703
- cell number (number of nucleus/visual field) (C3H10T1/2 cells; compound 10 nM): 318 ± 9
- lipid droplet area (lipid droplet stained area/cell number) (C3H10T1/2 cells; compound 10 nM): 2010
- cell number (in words) (C3H10T1/2 cells; adipocyte differentiation): without affecting
- intracellular lipid accumulation (in words) (C3H10T1/2 cells; adipocyte differentiation): decreased
- glucose AUC0-120 min (Female KKA^y mice; 0.01 mg/kg/day in mixed feed): 241.0 mg·h/dL
- glucose AUC0-120 min (mg h/dL) (Female KKA^y mice; 0.03 mg/kg/day in mixed feed): 184.7* mg h/dL
- glucose AUC0-120 min (mg h/dL) (Female KKA^y mice; 0.09 mg/kg/day in mixed feed): 182.5* mg h/dL
- creatine kinase activity decreased by TNF-α (in words) (C2C12 cells): recovered
- creatine kinase activity (mIU/μg) (C2C12 cells; compound 0 nM as printed): 0.12 mIU/μg and 0.15 mIU/μg
- creatine kinase activity (mIU/μg) (C2C12 cells; compound 1 nM): 0.25 mIU/μg
- creatine kinase activity (mIU/μg) (C2C12 cells; compound 3 nM): 0.39 mIU/μg
